According to patent publication US9266900B2, “Additives for improved isohexide products” (ARCHER DANIELS MIDLAND COMPANY, priority 2012, dated 2016):

Legend:
[1] = stable = formic acid less than 5 ppm and monoanhydrohexoses less than 50 ppm, dry weight basis; cited from earlier work
[2] = Heating of isosorbide distillate in 200° C. oil bath for 1 hr under air, APHA color by UV/vis; assay type: physicochemical; conditions: 0.5 g diluted with 2 mL water
Experimental: About, an 11 gram sample of the isosorbide distillate was added to a glass tube and capped with a septum. The glass tube was then submerged in a 200° C. oil bath for 1 hr under air. Approximately 0.5 g of the heated distillate sample was subsequently diluted with 2 mL of water and analyzed by UV/vis to obtain an APHA color value. An APHA color of approximately 250 was observed, compared to an APHA value for a distillate sample absent the DTMP additive that was offscale (>500).
About an 11 gram sample of the isosorbide distillate was added to a glass tube and capped with a septum. The glass tube was then submerged in a 200° C. oil bath for 1 hr under air.

[3] = Thermal aging of neat distillate in 85 deg C. oven under air up to 28 days; assay type: physicochemical; conditions: for formic acid after 28 days / furfural after 28 days / APHA color after 28 days: 85 deg C.; for APHA color after 28 days: air, measured as a 20% solution; for APHA color, time zero: UV/vis; for color stability criteria after accelerated aging: 85 degrees Celsius, 4 weeks, APHA less than 200 neat distillate and less than 250 for 85% solution
Experimental: The DTMP-stabilized distillate was further tested for color storage stability by thermal aging over a more extended period of time, in particular, by preparing typically five 10 mL headspace vials of each of the neat distillate and an 85% solution of the distillate in water in 0.5 gram sample portions. One vial of the set of five for the neat distillate or the 85% solution was set aside as the “time zero” data point. The time zero sample was diluted with 2 mL of water and analyzed.
For the neat distillate, the APHA color of the time zero sample was less than 20 by UV/vis. All other decomposition products were less than 5 ppm. The four other vials of the neat distillate were then placed in an 85 deg C. oven trader air, and one vial was removed at 7 days, another at 14 days, another at 21 days, and the last of the four at 28 days. Once removed from the oven, each sample was allowed to cool to room temperature and diluted with 2 mL of water. The sample was then analyzed by UV/vis, UPLC, LC-MS, and GC. After 28 days, APHA color, measured as a 20% solution, was only 28. Furfural and formic acid were measured at 18 ppm and 39 ppm, respectively.
The BBTC-stabilized distillate was further tested for color storage stability by thermal aging over a more extended period of time, in particular, by preparing typically five 10 mL headspace vials of each of the neat distillate and an 85% solution of the distillate in water in 0.5 gram sample portions. One vial of the set of five for the neat distillate or the 85% solution was set aside as the “time zero” data point. The time zero sample was diluted with 2 mL of water and analyzed.
For the neat distillate, the APHA color of the time zero sample was less than 1 by UV/vis. Formic acid concentration in the time zero sample was less than 5 ppm, while furfural concentration was less than 1 ppm. The four other vials of the neat distillate were then placed in an 85 deg C. oven under air, and one vial was removed at 7 days, another at 14 days, another at 21 days, and the last of the four at 28 days. Once removed from the oven, each sample was allowed to cool to room temperature and diluted with 2 mL of water. Each sample was then analyzed by UV/vis, UPLC, LC-MS, and GC. After 28 days, APHA color, measured as a 20% solution, was 191. Furfural and formic acid were measured at 298 ppm and 6,102 ppm, respectively.

[4] = Thermal aging of 85% solution of the distillate in water at 85 deg C. up to 28 days; assay type: physicochemical; conditions: for formic acid concentration, final sample / furfural concentration, final sample / APHA color, day 28 / formic acid concentration, initially / furfural concentration, initially / APHA color, time zero: 85% solution; for formic acid concentration, final sample / furfural concentration, final sample / APHA color, day 28: 85 deg C.; for formic acid concentration, final sample / furfural concentration, final sample: 28 days; for APHA color, day 28: day 28, final diluted (20%); for formic acid concentration, initially / furfural concentration, initially: initial; for APHA color, time zero: diluted (20%)
[5] = Distillation of crude isosorbide mixture with added antioxidant: co-distillation and initial distillate color; assay type: physicochemical; conditions: for initial APHA color of the neat distillate: neat distillate after distillation, ASTM D1209; for additive distilled with the isosorbide / recovered in the distillate by UPLC analysis: short path distillation, oil bath 185 to 195 degrees Celsius, less than 2 torr; for antioxidant recovered in the distillate, yield: co-distilled with isosorbide
Experimental: A 500 mL boiling flask equipped with a Teflon stir bar was charged with 100 g of ion-exchanged (strong acid cation/strong base anion-exchanged), dewatered, molten isosorbide. While stirring, 40.02 mg of 2,6-di-tert-butyl-4-methoxyphenol (DTMP), previously dissolved in 2 mL of absolute ethanol, was added via pipette, indicating the DTMP concentration as 400 ppm in the matrix. The flask was then outfitted with a still head, condenser, and receiver, placed under a vacuum of <2 torr, and placed in a digitally controlled oil bath. The bath was gradually heated to 190 degrees Celsius while maintaining a vacuum. At a bath temperature of approximately 155 degrees, isosorbide began to distill (vapor temperature of 150 deg C.). Continuous distillation occurred for approximately 30 minutes. 45.6 grams of clear, colorless isosorbide was collected, whose APHA color was measured as 6. Quantitative analysis by UPLC determined the concentration of DTMP in the distilled isosorbide to be 503 ppm.
In this as in subsequent examples, a quantity of an antioxidant under evaluation was dissolved in 1-2 mL of absolute ethanol and then added via pipette to a crude isosorbide mixture which had been treated previously to remove ionic species therefrom. Amounts were set so that the concentration of the antioxidant in the crude isosorbide mixture was in the range of from 250 to 900 ppm by weight. The stabilized crude isosorbide mixtures were then distilled in turn in a short path, jacketed distillation apparatus consisting of a 250 cc 3 neck boiling flask containing a PTFE magnetic stir bar in which one neck was fitted with a rubber septum, a thermocouple extended into the mixture being distilled from a central neck, and the third neck was equipped with the short path head leading to a boiling flask receiver maintained at 80 degrees Celsius. The boiling flask was immersed in an oil bath maintained at from 185 to 195 degrees Celsius, and distillation occurred under a vacuum pressure of less than 2 torr.

[6] = Solubility and retention of stabilizer in isosorbide product; conditions: 85% solution isosorbide product

C1COCCN1 [morpholine]
stability of composition according to the '477 patent [1]: stable

O=C1O[C@H]([C@@H](O)CO)C(O)=C1O [vitamin C]
stability of composition according to the '477 patent [1]: stable

CCCC(c1cc(C(C)(C)C)c(O)cc1C)c1cc(C(C)(C)C)c(O)cc1C [BBTC, 4,4′-butylidenebis(6-t-butyl-m-cresol)]
APHA color after heating [2]: offscale | formic acid after 28 days ([3]; neat distillate): 6,102 ppm | furfural after 28 days ([3]; neat distillate): 298 ppm | APHA color after 28 days ([3]; neat distillate): 191 | formic acid concentration, time zero ([3]; neat distillate, time zero): less than 5 ppm | furfural concentration, time zero ([3]; neat distillate, time zero): less than 1 ppm | APHA color, time zero ([3]; neat distillate, time zero): less than 1 | formic acid concentration, final sample [4]: 4264 ppm | furfural concentration, final sample [4]: 298 ppm | APHA color, day 28 [4]: more than 500 | formic acid concentration, initially [4]: less than 5 ppm | furfural concentration, initially [4]: less than 1 ppm | APHA color, time zero [4]: less than 1 | initial APHA color of the neat distillate [5]: 10 | additive distilled with the isosorbide / recovered in the distillate by UPLC analysis [5]: About 83%

COc1cc(C)cc(OC)c1O [DMMP, 2,6-dimethoxy-4-methylphenol]
APHA color after heating [2]: 205 | color stability criteria after accelerated aging [3]: criteria were met | formic acid after 28 days ([3]; neat distillate): 74 ppm | APHA color after 28 days ([3]; neat distillate): 17 | formic acid concentration, time zero ([3]; neat distillate, time zero): less than 5 ppm | APHA color, time zero ([3]; neat distillate, time zero): less than 15 | solubility in 85% solution product [6]: continued good solubility | formic acid concentration, final sample [4]: 63 ppm | APHA color, day 28 [4]: 50 | formic acid concentration, initially [4]: less than 5 ppm | APHA color, time zero [4]: 5 | antioxidant recovered in the distillate, yield [5]: 84% | initial APHA color of the neat distillate [5]: 13 | additive distilled with the isosorbide / recovered in the distillate by UPLC analysis [5]: About 84%

O=P([O-])([O-])O.[Na+].[Na+] [Na2HPO4]
stability of composition according to the '477 patent [1]: stable

COc1cccc(OC)c1O [DMP, 2,6-dimethoxyphenol]
color stability criteria after accelerated aging [3]: met the criterion for either the neat distillate or the 85% solution product hut not for both | antioxidant recovered in the distillate, yield [5]: 64% | initial APHA color of the neat distillate [5]: 18.7

COc1cc(C(C)(C)C)c(O)c(C(C)(C)C)c1 [DTMP, 2,6-di-tert-butyl-4-methoxyphenol]
APHA color after heating [2]: approximately 250 | color stability criteria after accelerated aging [3]: met the criterion for either the neat distillate or the 85% solution product hut not for both | formic acid after 28 days ([3]; neat distillate): 39 ppm | furfural after 28 days ([3]; neat distillate): 18 ppm | APHA color after 28 days ([3]; neat distillate): 28 | all other decomposition products, time zero ([3]; neat distillate, time zero): less than 5 ppm | APHA color, time zero ([3]; neat distillate, time zero): less than 20 | 5-hydroxymethylfurfural (HMF) formation ([3]; neat stabilized sample, aged): < 5 ppm | formic acid concentration, final sample [4]: 250 ppm | furfural concentration, final sample [4]: 88 ppm | APHA color, day 28 [4]: 150 | furfural concentration, initially [4]: less than 5 ppm | APHA color, time zero [4]: 0 | 5-hydroxymethylfurfural (HMF) formation ([4]; 85% stabilized sample, aged): < 5 ppm | concentration of additive in the distilled isosorbide by UPLC ([5]; 400 ppm in the matrix before distillation): 503 ppm | antioxidant recovered in the distillate, yield [5]: 50%

[Na+].[OH-] [NaOH]
stability of composition according to the '477 patent [1]: stable

Cc1c(C)c2c(c(C)c1O)CCC(C)(C(=O)O)O2 (stereo not shown) [Trolox™, 6-hydroxy-2,5,7,8-tetramethylchromane-2-carboxylic acid]
formic acid after 28 days ([3]; neat distillate): 3291 ppm | furfural after 28 days ([3]; neat distillate): 460 ppm | APHA color after 28 days ([3]; neat distillate): over 500 | formic acid concentration, time zero ([3]; neat distillate, time zero): less than 5 ppm | furfural concentration, time zero ([3]; neat distillate, time zero): less than 1 ppm | APHA color, time zero ([3]; neat distillate, time zero): 15 | rate of color formation compared to control vials containing distillate alone ([3]; thermal aging, stabilized samples vs control): developed color more quickly | formic acid concentration, final sample [4]: 3360 ppm | furfural concentration, final sample [4]: 512 ppm | APHA color, day 28 [4]: more than 500 | formic acid concentration, initially [4]: less than 5 ppm | furfural concentration, initially [4]: less than 1 ppm | APHA color, time zero [4]: 5 | initial APHA color of the neat distillate [5]: 15 | additive distilled with the isosorbide / recovered in the distillate by UPLC analysis [5]: About 26%

O=B[O-].[Na+] [NaBO2]
stability of composition according to the '477 patent [1]: stable

Cc1cc(C(C)(C)C)c(O)c(C(C)(C)C)c1 [BHT]
stability of composition according to the '477 patent [1]: stable

CC(C)(C)c1cc(O)ccc1O [TBHQ, tert-butylhydroquinone]
formic acid after 28 days ([3]; neat distillate): 3458 ppm | furfural after 28 days ([3]; neat distillate): 182 ppm | APHA color after 28 days ([3]; neat distillate): 233 | formic acid concentration, time zero ([3]; neat distillate, time zero): less than 5 ppm | furfural concentration, time zero ([3]; neat distillate, time zero): less than 1 ppm | APHA color, time zero ([3]; neat distillate, time zero): 110 | formic acid concentration, final sample [4]: 770 ppm | furfural concentration, final sample [4]: 257 ppm | APHA color, day 28 [4]: more than 500 | formic acid concentration, initially [4]: less than 5 ppm | furfural concentration, initially [4]: less than 1 ppm | APHA color, time zero [4]: less than 1 | additive distilled with the isosorbide / recovered in the distillate by UPLC analysis [5]: Virtually a quantitative recovery
